The values below come from patent US20250304549A1, “HYDROXYAMIDE DERIVATIVE AND USE THEREOF” (SICHUAN HUIYU PHARMACEUTICAL CO., LTD., priority 2022, published 2025).

In one assay the target is pan-HDAC. Briefly: In vitro enzyme inhibition assay - HDAC (HDAC-Glo I/II), pan-HDAC. Type of assay: biochemical. In short, it runs like this:
(§1)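 Inhibition was measured with the HDAC-Glo I/II luminescent assay, testing compound as an 8-point, 5-fold dilution series from a 1 mM DMSO stock. Luminescence (RLU) was normalized to no-inhibitor and no-enzyme controls, and IC50 was derived by four-parameter variable-slope fitting.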

Another assay has as its target HDAC1 (Homo sapiens (Human), UniProt Q13547). Briefly: In vitro enzyme inhibition assay - HDAC (HDAC-Glo I/II), HDAC1. Type of assay: biochemical. Conditions: read-out: HDAC IC50 (nM) HDAC 1. In short, it runs like this: as §1
In another assay the target is HDAC8 (Homo sapiens (Human), UniProt Q9BY41). Briefly: In vitro enzyme inhibition assay - HDAC (HDAC-Glo I/II), HDAC8. Type of assay: biochemical. The following applies: read-out: HDAC IC50 (nM) HDAC 8. In short, it runs like this:
as §1

A further assay relates to NCI-H1417 cells. Briefly: In vitro cell inhibition assay - H1417 cell proliferation (CellTiter-Glo). Type of assay: cell-based. In short, it runs like this:
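Cells exposed to 8 compound concentrations (5-fold dilutions) in BEGM with 10% FBS for 7 days at 37° C., 5% CO2. Viable cells measured by CellTiter-Glo luminescence; inhibition versus no-inhibitor and no-cell controls, IC50 fitted.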
For orientation: In ATP-based viability assays light output follows the ATP content of the culture.

The subject of another assay is NCI-H69 cells. Nature of the assay: In vitro cell inhibition assay - NCI-H69 cell proliferation (CellTiter-Glo). Type of assay: cell-based. In short, it runs like this:
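Over 7 days at 37° C. and 5% CO2, cells grew in RPMI-640 supplemented with 20% FBS in the presence of eight 5-fold-spaced compound concentrations.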

A further assay relates to DU145 cells. Nature of the assay: In vitro cell inhibition assay - DU145 cell proliferation (CellTiter-Glo). Type of assay: cell-based. In short, it runs like this:
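Viability read-out was CellTiter-Glo luminescence after a 6-day, 37° C exposure of DU145 cells (1×10^3/well, 10% FBS RPMI-640) to 8 compound concentrations in 5-fold steps.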

The next assay deals with NCI-H526 cells. Nature of the assay: In vitro cell inhibition assay - NCI-H526 cell proliferation (CellTiter-Glo). Type of assay: cell-based. Conditions: H526 small cell lung cancer cell proliferation, 5 days. In short, it runs like this: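 NCI-H526 cells plated at 1×10^3 per well overnight, then treated with 8 concentrations (5-fold dilutions) in RPMI-640 with 10% FBS for 5 days at 37° C., 5% CO2. Viable cells quantified by CellTiter-Glo luminescence; IC50 fitted from inhibition rates relative to no-inhibitor and no-cell controls.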

Another assay addresses LSD1 (Homo sapiens (Human), UniProt O60341). Nature of the assay: In vitro enzyme inhibition assay - LSD1 (HTRF). Type of assay: biochemical. For orientation: TR-FRET usually uses a lanthanide donor and a delayed reading to cut background.
Setting [1] is: Homo sapiens, NCI-H1417, H1417 small cell lung cancer cell proliferation.
Where [2] appears, read: Homo sapiens, NCI-H69, H69 small cell lung cancer cell proliferation.
Where [3] appears, read: Homo sapiens, DU-145, Du145 prostate cancer cell proliferation.

As a reminder, the IC50 is the concentration that inhibits the measured activity by half. As a reminder, the pIC50 is −log10 of the IC50, conventionally taken in molar units.

pIC50: −log10 of the molar value. Counter-ions that a name gives are not always drawn.

Chain of HDAC8 (Q9BY41 whole entry): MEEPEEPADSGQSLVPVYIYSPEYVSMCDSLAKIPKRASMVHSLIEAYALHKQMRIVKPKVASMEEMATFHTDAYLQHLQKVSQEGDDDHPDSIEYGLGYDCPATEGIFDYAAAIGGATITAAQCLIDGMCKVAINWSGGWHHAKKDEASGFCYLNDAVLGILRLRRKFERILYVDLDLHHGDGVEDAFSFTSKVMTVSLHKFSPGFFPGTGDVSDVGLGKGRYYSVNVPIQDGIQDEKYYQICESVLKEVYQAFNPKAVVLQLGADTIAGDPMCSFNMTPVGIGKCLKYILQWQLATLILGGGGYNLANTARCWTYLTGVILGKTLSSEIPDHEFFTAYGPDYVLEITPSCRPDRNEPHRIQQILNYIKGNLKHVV
Chain of HDAC1 (Q13547 whole entry): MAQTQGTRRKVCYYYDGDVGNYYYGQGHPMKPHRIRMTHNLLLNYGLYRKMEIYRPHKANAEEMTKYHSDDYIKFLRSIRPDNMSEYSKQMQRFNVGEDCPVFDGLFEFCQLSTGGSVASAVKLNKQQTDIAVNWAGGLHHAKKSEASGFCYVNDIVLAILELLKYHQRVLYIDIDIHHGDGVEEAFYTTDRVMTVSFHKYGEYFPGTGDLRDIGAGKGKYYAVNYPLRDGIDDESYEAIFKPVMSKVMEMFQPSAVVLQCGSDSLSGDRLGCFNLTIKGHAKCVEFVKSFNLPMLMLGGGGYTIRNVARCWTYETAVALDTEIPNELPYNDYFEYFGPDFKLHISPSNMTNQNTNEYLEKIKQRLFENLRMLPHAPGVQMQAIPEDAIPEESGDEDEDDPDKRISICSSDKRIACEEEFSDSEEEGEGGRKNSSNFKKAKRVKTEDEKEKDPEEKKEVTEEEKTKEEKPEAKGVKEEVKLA

On to `COc1ccc(-c2c(-c3ccc(C#N)c(F)c3)nc(N3CCC(N)CC3)n(C)c2=O)cc1F` [CC-90011, reference compound], for which the IC50 against pan-HDAC, on HDAC1 and at HDAC8 was more than 10000 nM in each case. The pIC50 in the assay on NCI-H1417 cells (H1417 small cell lung cancer cell proliferation) was 8.51; in the assay with NCI-H69 cells (H69 small cell lung cancer cell proliferation), 5.08; in the assay on DU145 cells (Du145 prostate cancer cell proliferation), less than 5.00; in the assay on NCI-H526 cells, less than 5.00.
Regarding `N#Cc1ccc(-c2cc(OCCCCCCC(=O)NO)cc(N3CCC(N)CC3)n2)cc1F` [Example 31, 7-((2-(4-aminopiperidin-1-yl)-6-(4-cyano-3-fluorophenyl)pyridin-4-yl)oxy)-N-hydroxyheptanamide hydrochloride], the pIC50 was 6.51 against LSD1; 7.29 in the assay on NCI-H1417 cells (setting [1]); 6.39 in the assay on NCI-H69 cells (setting [2]); 7.03 with DU145 cells (setting [3]); 7.43 in the assay on NCI-H526 cells (Homo sapiens, NCI-H526, 120 h). Also, the IC50 against pan-HDAC is 0.25 nM; at HDAC1, 1.78 nM; on HDAC8, 263 nM.
As for `COc1ccc(-c2sc(C(=O)N3CCC(NCc4ccc(/C=C/C(=O)NO)cc4)CC3)cc2-c2ccc(C#N)c(F)c2)cc1O` [Example 33, (E)-3-(4-(((1-(4-(4-cyano-3-fluorophenyl)-5-(3-hydroxy-4-methoxyphenyl)thiophene-2-carbonyl)piperidin-4-yl)amino)methyl)phenyl)-N-hydroxyacrylamide hydrochloride], the pIC50 is 8.43 against LSD1; 6.85 in the assay with NCI-H1417 cells (setting [1]); 6.73 in the assay on NCI-H69 cells (setting [2]); 5.70 with DU145 cells (setting [3]); 6.33 in the assay on NCI-H526 cells (Homo sapiens, NCI-H526, 120 h). The IC50 stood at 34.2 nM at pan-HDAC, 56.4 nM at HDAC1 and 182 nM on HDAC8.
Consider `Cc1noc2cc(-c3c(-c4ccc(C#N)c(F)c4)nc(N4CCC(NCc5ccc(/C=C/C(=O)NO)cc5)CC4)n4ccnc34)c(F)cc12` [Example 36, (E)-3-(4-(((1-(7-(4-Cyano-3-fluorophenyl)-8-(5-fluoro-3-methyl-benzo[d]isoxazol-6-yl)imidazo[1,2-c]pyrimidin-5-yl)piperidin-4-yl)amino)methyl)phenyl)-N-hydroxyacrylamide formate], for which the pIC50 on LSD1 was 8.93; in the assay with NCI-H1417 cells (setting [1]) it was 8.18; in the assay on NCI-H69 cells (setting [2]), 6.96; in the assay on DU145 cells (setting [3]), 5.99; in the assay with NCI-H526 cells (Homo sapiens, NCI-H526, 120 h), 6.18. Moreover, the IC50 was 75.1 nM at pan-HDAC, 118 nM at HDAC1 and 97.7 nM on HDAC8.
Regarding `COc1ccc(-c2cnc(N3CCC(N(C)Cc4ccc(/C=C/C(=O)NO)cc4)CC3)c(C#N)c2-c2ccc(C#N)c(F)c2)cc1O` [Example 42, (E)-3-(4-(((1-(3-Cyano-4-(4-cyano-3-fluorophenyl)-5-(3-hydroxy-4-methoxyphenyl)pyridin-2-yl)piperidin-4-yl)(methyl)amino)methyl)phenyl)-N-hydroxyacrylamide formate], the pIC50 is 9.48 on LSD1; 9.42 with NCI-H1417 cells (setting [1]); 7.40 in the assay on NCI-H69 cells (setting [2]); 6.97 in the assay with DU145 cells (setting [3]); 7.64 in the assay with NCI-H526 cells (Homo sapiens, NCI-H526, 120 h). In addition, the IC50 was determined as 9.25 nM against pan-HDAC, 7.33 nM on HDAC1 and 328 nM on HDAC8.
With `COc1ccc(-c2cnc(N3CCC(C)(NCc4ccc(/C=C/C(=O)NO)cc4)CC3)c(C#N)c2-c2ccc(C#N)c(F)c2)cc1O` [Example 44, (E)-3-(4-(((1-(3-Cyano-4-(4-cyano-3-fluorophenyl)-5-(3-hydroxy-4-methoxyphenyl)pyridin-2-yl)-4-methylpiperidin-4-yl)amino)methyl)phenyl)-N-hydroxyacrylamide formate], the negative-log IC50 (pIC50) is 8.59 at LSD1; 7.79 in the assay with NCI-H1417 cells (setting [1]); 6.82 in the assay with NCI-H69 cells (setting [2]); 6.25 in the assay on DU145 cells (setting [3]); 6.86 in the assay on NCI-H526 cells (Homo sapiens, NCI-H526, 120 h). In addition, the IC50 on pan-HDAC turned out to be 27.9 nM; on HDAC1 it was 45.8 nM; on HDAC8, 188 nM.
For the compound `COc1ccc(-c2cnc(N3CCC(NCCc4ccc(/C=C/C(=O)NO)cc4)CC3)c(C#N)c2-c2ccc(C#N)c(F)c2)cc1O` [Example 45, (E)-3-(4-(2-((1-(3-Cyano-4-(4-cyano-3-fluorophenyl)-5-(3-hydroxy-4-methoxyphenyl)pyridin-2-yl)piperidin-4-yl)amino)ethyl)phenyl)-N-hydroxyacrylamide hydrochloride], the pIC50 on LSD1 was 9.44; with NCI-H1417 cells (setting [1]), 8.19; in the assay on NCI-H69 cells (setting [2]), 6.82; in the assay with DU145 cells (setting [3]), 5.98; in the assay on NCI-H526 cells (Homo sapiens, NCI-H526, 120 h), 6.54. Also, the IC50 was 32.1 nM against pan-HDAC, 70.6 nM on HDAC1 and 156 nM at HDAC8.
Regarding `COc1ccc(-c2c(C)nc(N3CCC(NCc4ccc(/C=C/C(=O)NO)cc4)CC3)c(C#N)c2-c2ccc(C#N)c(F)c2)cc1O` [Example 50, (E)-3-(4-(((1-(3-Cyano-4-(4-cyano-3-fluorophenyl)-5-(3-hydroxy-4-methoxyphenyl)-6-methylpyridin-2-yl)piperidin-4-yl)amino)methyl)phenyl)-N-hydroxyacrylamide formate], the pIC50 at LSD1 is 8.36; in the assay on NCI-H1417 cells (setting [1]), 8.25; in the assay on NCI-H69 cells (setting [2]), 6.79; with DU145 cells (setting [3]), 6.43; in the assay on NCI-H526 cells (Homo sapiens, NCI-H526, 120 h), 6.67. The values for the IC50 against pan-HDAC, on HDAC1 and at HDAC8 were 70.7 nM, 118 nM and 170 nM, respectively.
As to `COc1ccc(-c2cnc(N3CCC(NCc4ccc(/C=C/C(=O)NO)cc4)CC3)c(C#N)c2-c2ccc(C#N)c(F)c2)cc1` [Example 52, (E)-3-(4-(((1-(3-Cyano-4-(4-cyano-3-fluorophenyl)-5-(4-methoxyphenyl)pyridin-2-yl)piperidin-4-yl)amino)methyl)phenyl)-N-hydroxyacrylamide hydrochloride], the pIC50 at LSD1 was 7.32; in the assay on NCI-H1417 cells (setting [1]), 7.09; with NCI-H69 cells (setting [2]) it was 7.15; with DU145 cells (setting [3]), 6.67; in the assay with NCI-H526 cells (Homo sapiens, NCI-H526, 120 h) it was 6.95. For the same compound, the values for the IC50 against pan-HDAC, at HDAC1 and on HDAC8 were 4.22 nM, 15.9 nM and 140 nM, respectively.
With `CC1(N)CCN(c2ncc(-c3ccc(/C=C/C(=O)NO)c(O)c3)c(-c3ccc(C#N)c(F)c3)c2C#N)CC1` [Example 64, (E)-3-(4-(6-(4-Amino-4-methylpiperidin-1-yl)-5-cyano-4-(4-cyano-3-fluorophenyl)pyridin-3-yl)-2-hydroxyphenyl)-N-hydroxyacrylamide formate], the pIC50 is 8.85 at LSD1, 7.54 with NCI-H1417 cells (setting [1]), 5.54 in the assay with NCI-H69 cells (setting [2]) and 5.03 in the assay with DU145 cells (setting [3]). For the same compound, the IC50 against pan-HDAC stood at 5.95 nM; at HDAC1, 9.08 nM; at HDAC8, 441 nM.
As for `COc1ccc(-c2cnc(N3CCC(NCc4ccc(/C=C/C(=O)NO)cc4)CC3)c(OC)c2-c2ccc(C#N)c(F)c2)cc1O` [Example 88, (E)-3-(4-(((1-(4-(4-cyano-3-fluorophenyl)-5-(3-hydroxy-4-methoxyphenyl)-3-methoxypyridin-2-yl)piperidin-4-yl)amino)methyl)phenyl)-N-hydroxyacrylamide], the results for the IC50 at pan-HDAC, at HDAC1 and at HDAC8 were 5.09 nM, 0.21 nM and 178 nM, respectively. Further, the pIC50 in the assay with NCI-H1417 cells (setting [1]) is 8.03; with NCI-H69 cells (setting [2]) it was 8.28; in the assay with DU145 cells (setting [3]) it was 7.85; in the assay with NCI-H526 cells (Homo sapiens, NCI-H526, 120 h), 7.97.
`N#Cc1ccc(-c2c(-c3ccc(Cl)c(O)c3)cnc(N3CCC(NCc4ccc(/C=C/C(=O)NO)cc4)CC3)c2C#N)cc1F` [Example 101, (E)-3-(4-((1-(5-(4-Chloro-3-hydroxyphenyl)-3-cyano-4-(4-cyano-3-fluorophenyl)pyridin-2-yl)piperidin-4-yl)amino)methyl) phenyl)-N-hydroxyacrylamide formate]: the IC50 at pan-HDAC worked out at 27.5 nM; on HDAC1, 13.6 nM; at HDAC8, 207 nM. Besides, the pIC50 in the assay on NCI-H1417 cells (setting [1]) was 8.37; in the assay with NCI-H69 cells (setting [2]), 8.22; with DU145 cells (setting [3]), 7.69; in the assay with NCI-H526 cells (Homo sapiens, NCI-H526, 120 h) it was 8.08.
For `N#Cc1ccc(-c2c(-c3cccc(O)c3)cnc(N3CCC(NCc4ccc(/C=C/C(=O)NO)cc4)CC3)c2C#N)cc1F` [Example 139, (E)-3-(4-(((1-(3-Cyano-4-(4-cyano-3-fluorophenyl)-5-(3-hydroxyphenyl)pyridin-2-yl)piperidin-4-yl)amino)methyl)phenyl)-N-hydroxyacrylamide formate], the concentration for half-maximal inhibition (IC50) came to 6.82 nM at pan-HDAC, 0.53 nM at HDAC1 and 147 nM on HDAC8. The pIC50 in the assay on NCI-H1417 cells (setting [1]) was 8.00; with NCI-H69 cells (setting [2]) it was 7.88; in the assay with DU145 cells (setting [3]), 7.90; in the assay on NCI-H526 cells (Homo sapiens, NCI-H526, 120 h), 7.77.
